The results in this text go back to US11690810B2, “Combination treatment of bacterial infection” (The Chinese University of Hong Kong, priority 2018, dated 2023).

Where two headings read alike, the source gives them in different places.

The subject of experiment [1] is CA-MRSA strain ST30. Kind of experiment: MIC and checkerboard (FIC) assay. Type of experiment: cell-based, Staphylococcus aureus. The conditions noted are these: Staphylococcus aureus, MRSA.
Experiment [2] concerns S. aureus SA-APH2″-AAC6′ (APH2), resistant to gentamicin. Kind of experiment: MIC and checkerboard (FIC) assay.
The test system of experiment [3] is S. aureus SA-APH3′ (APH3), resistant to kanamycin. Kind of experiment: MIC and checkerboard (FIC) assay. To be noted: Staphylococcus aureus; for MIC: read-out: Minimum inhibitory concentration to compound (MIC).
Experiment [4] relates to S. aureus SA-ANT4′ (ANT4), resistant to fusidic acid. Kind of experiment: MIC and checkerboard (FIC) assay.
Experiment [5] relates to S. aureus SA-RN4220-pUL5054 (RN4220). Briefly: MIC and checkerboard (FIC) assay. The conditions noted are these: Staphylococcus aureus.
Experiment [6] has as its system S. aureus SA-1199B (NorA efflux pump overexpressed). Briefly: MIC and checkerboard (FIC) assay. The conditions noted are these: Staphylococcus aureus; for MIC: read-out: Minimum inhibitory concentration to compound (MIC), 1199B′, Table 8.
Experiment [7] has as its system MRSA SA-ST239. Briefly: MIC and checkerboard (FIC) assay. The conditions noted are these: for FIC / MIC combine: ST239.
Experiment [8] has as its system clinical fusidic acid resistant MRSA strain 82356. Kind of experiment: MIC and checkerboard (FIC) assay. Type of experiment: cell-based, Staphylococcus aureus.
In experiment [9] the test system is clinical fusidic acid resistant MRSA strain 73621. Briefly: MIC and checkerboard (FIC) assay. It counts as cell-based, Staphylococcus aureus.
The test system of experiment [10] is clinical fusidic acid resistant MRSA strain 96591. Kind of experiment: MIC and checkerboard (FIC) assay. Type of experiment: cell-based, Staphylococcus aureus.
In experiment [11] the test system is S. aureus ATCC25923 (methicillin sensitive). Briefly: MIC and checkerboard (FIC) assay. To be noted: Staphylococcus aureus.
Experiment [12] has as its system panel of laboratory MRSA strains. Kind of experiment: MIC and combination tests, panel of laboratory strains. The conditions noted are these: tanshinone highest tested concentration 128 μg/ml.
The test system of experiment [13] is HA MRSA W231. Kind of experiment: MIC and checkerboard (FIC) assay.
Experiment [14] deals with HA MRSA W233. Briefly: MIC and checkerboard (FIC) assay.
The subject of experiment [15] is HA MRSA W238. Briefly: MIC and checkerboard (FIC) assay.
Setting [16] is: ST30, Table 8, read-out: Minimum inhibitory concentration to compound (MIC).
Where [17] appears, read: ST30, read-out: Activity (MIC, μg/ml).
Where [18] appears, read: Staphylococcus aureus, read-out: MIC alone.
[19] abbreviates: Staphylococcus aureus, read-out: Minimum inhibitory concentration to compound (MIC).
The mark [20] stands for this setting: read-out: Minimum inhibitory concentration to compound (MIC).
Where [21] appears, read: Staphylococcus aureus, MRSA, read-out: Activity (MIC, μg/ml).
Where [22] appears, read: Staphylococcus aureus, MRSA, read-out: MIC alone.
The mark [23] stands for this setting: read-out: Activity (MIC, μg/ml).
The mark [24] stands for this setting: Staphylococcus aureus, read-out: MIC 99.9.
Where [25] appears, read: APH2″-AAC6′, ECG with WQD-169 (Kuraridin).

On to `C=C(C)C(CC=C(C)C)Cc1c(O)cc(OC)c(C(=O)/C=C/c2ccc(O)cc2OC)c1O` (racemic) [WQD-164, (E)-1-(2,4-dihydroxy-6-methoxy-3-(5-methyl-2-(prop-1-en-2-yl)hex-4-en-1-yl)phenyl)-3-(4-hydroxy-2-methoxyphenyl)prop-2-en-1-one], for which the MIC came to 128 µg/mL in experiment [1] (setting [16]); 128 µg/mL in experiment [1] (setting [17]); 16 µg/mL in [2] (setting [18]); 16 µg/mL in experiment [2] (setting [19]); 32 µg/mL in experiment [3]; 32 µg/mL in experiment [4] (setting [19]). The MIC came to 64 µg/mL in experiment [5] (setting [20]), 64 µg/mL in experiment [6], 32 µg/mL in [7] (setting [21]) and 32 µg/mL in experiment [7] (setting [22]). Besides, the FIC in [2] (APH2″-AAC6′, ECG with WQD-164) came out at 0.50; in experiment [7] (ECG with WQD-164), 0.50. In addition, the MIC combine was found to be 8 µg/mL in [2] (APH2″-AAC6′, ECG with WQD-164) and 4 µg/mL in [7] (ECG with WQD-164).
For `C=C(C)C(CC=C(C)C)Cc1c(OC)cc(OC)c(C(=O)/C=C/c2ccc(OCOC)cc2OCOC)c1OC` (stereo not drawn) [Compound A], the MIC in [5] (setting [23]) is > 256 µg/mL.
Same read-out and setting: the result for `C=C(C)C(CC=C(C)C)Cc1c(OC)cc(OC)c(C(=O)/C=C/c2ccc(O)cc2O)c1OC` (stereo not drawn) [Compound B] reads 64 µg/mL.
Take `CC(=O)O[C@H]1C[C@@]2(C)[C@@H](C[C@@H](O)[C@H]3[C@@]4(C)CC[C@@H](O)[C@@H](C)[C@@H]4CC[C@@]32C)/C1=C(\CCC=C(C)C)C(=O)O` [Fusidic acid, fusidic acid, reference compound]: the FIC in experiment [8] (82356, ECG+Kur+Fus) is reported as 0.03; in experiment [9] (73621, ECG+Kur+Fus), 0.03; in [10] (96591, ECG+Kur+Fus), 0.03; in experiment [4] (ANT4, ECG+Kur+Fus) it was 0.125. For the same molecule, the MIC combine came out at 1 µg/mL in experiment [8] (82356, ECG+Kur+Fus); 1 µg/mL in experiment [9] (73621, ECG+Kur+Fus); 1 µg/mL in [10] (96591, ECG+Kur+Fus); 4 µg/mL in experiment [4] (ANT4, ECG+Kur+Fus); 8 µg/mL in experiment [4] (ANT4, ECG+Kur+Fus, listed as Fus). The MIC in experiment [8] (Staphylococcus aureus, MRSA, 82356 (fusidic acid resistant), read-out: MIC alone) amounted to 32 µg/mL; in experiment [9] (Staphylococcus aureus, MRSA, 73621 (fusidic acid resistant), read-out: MIC alone), 32 µg/mL; in experiment [10] (Staphylococcus aureus, MRSA, 96591 (fusidic acid resistant), read-out: MIC alone) it was 32 µg/mL; in [4] (setting [18]) it was 64 µg/mL.
Usually MIC90 stands for an inhibitory concentration at the 90% level, which refers to growth in some studies and to a panel of isolates in others. For the molecule `O=C(O)c1cc(O)c(O)c(O)c1` [Gallic acid, 3,4,5-trihydroxybenzoic acid], the MIC90 in experiment [2] (Staphylococcus aureus) was determined as 512 µg/mL; in experiment [3], 512 µg/mL; in experiment [4] (Staphylococcus aureus), 512 µg/mL; in experiment [5], 512 µg/mL; in [6], 512 µg/mL; in experiment [7] (Staphylococcus aureus, MRSA), 256 µg/mL. For the same molecule, the MIC90 in [11] (ATCC25923) is 256 µg/mL. Also, the MIC99 was > 512 µg/mL in [2] (setting [24]); > 512 µg/mL in experiment [3] (read-out: MIC 99.9); > 512 µg/mL in experiment [4] (setting [24]); > 512 µg/mL in experiment [5] (read-out: MIC 99.9); > 512 µg/mL in [6] (read-out: MIC 99.9); > 512 µg/mL in experiment [7] (Staphylococcus aureus, MRSA, read-out: MIC 99.9). Moreover, the MIC99 in experiment [11] (ATCC25923, read-out: MIC 99.9) is > 512 µg/mL. For the same molecule, the “activity against the tested MRSA strains when used alone” value in experiment [12] is “relatively weak”.
In the case of `C=C(C)C(CC=C(C)C)Cc1c(OC)cc(OC)c(C(=O)/C=C/c2ccc(OCc3ccccc3)cc2OCc2ccccc2)c1OC` (stereo not drawn) [WQD-8], the MIC in experiment [1] (setting [23]), in experiment [5] (setting [23]) and in [7] (setting [21]) was > 256 µg/mL each time.
Regarding `C=C(C)C(CC=C(C)C)Cc1c(OC)cc(OC)c(C(=O)/C=C/c2ccccc2O)c1OC` (stereo not drawn) [WQD-98], the MIC in [1] (setting [23]), in experiment [5] (setting [23]) and in [7] (setting [21]) was > 256 µg/mL each time.
With `C=C(C)C(CC=C(C)C)Cc1c(OC)cc(OC)c(C(=O)/C=C/c2ccc(O)cc2)c1OC` (stereo not drawn) [WQD-101], the MIC in experiment [1] (setting [23]), in experiment [5] (setting [23]) and in [7] (setting [21]) was > 256 µg/mL throughout.
Consider `C=C(C)C(CC=C(C)C)Cc1c(O)cc(OC)c(C(=O)/C=C/c2ccccc2O)c1O` (stereo not drawn) [WQD-165], for which the MIC was determined as 32 µg/mL in experiment [1] (setting [16]); 32 µg/mL in [1] (setting [17]); 4 µg/mL in [2] (setting [18]); 4 µg/mL in experiment [2] (setting [19]); 4 µg/mL in experiment [3]; 8 µg/mL in experiment [4] (setting [19]). Further, the MIC in experiment [5] (setting [20]) is 8 µg/mL; in experiment [6], 8 µg/mL; in experiment [7] (setting [21]), 4 µg/mL; in experiment [7] (setting [22]), 4 µg/mL. For the same molecule, the FIC was 1 in [2] (APH2″-AAC6′, ECG with WQD-165) and 1 in experiment [7] (ECG with WQD-165). Also, the MIC combine in experiment [2] (APH2″-AAC6′, ECG with WQD-165) is 4 µg/mL; in experiment [7] (ECG with WQD-165), 4 µg/mL.
On to `C=C(C)C(CC=C(C)C)Cc1c(O)cc(OC)c(C(=O)/C=C/c2ccc(O)cc2O)c1O` (stereo not drawn) [WQD-169, (E)-1-(2,4-dihydroxy-6-methoxy-3-(5-methyl-2-(prop-1-en-2-yl)hex-4-en-1-yl)phenyl)-3-(2,4-dihydroxyphenyl)prop-2-en-1-one], for which the MIC in experiment [1] (setting [16]), in [1] (setting [17]), in [2] (setting [19]), in experiment [3], in experiment [4] (setting [19]) and in [5] (setting [20]) was 8 µg/mL each time. Besides, the MIC in experiment [6], in experiment [7] (setting [21]) and in experiment [7] (setting [22]) was 8 µg/mL each time. For the same molecule, the values for the FIC in [2] (setting [25]) and in experiment [7] (ECG with WQD-169 (Kuraridin)) were 0.25 and 0.5, respectively. Besides, the MIC combine in [2] (setting [25]) was 2 µg/mL; in experiment [7] (ECG with WQD-169 (Kuraridin)), 4 µg/mL. The MIC alone in experiment [2] (Strain APH2″-AAC6′, Table 9) was 8 µg/mL.
In the case of `C=C(C)C(CC=C(C)C)Cc1c(O)cc(OC)c(C(=O)/C=C/c2ccc(O)cc2)c1O` (stereo not drawn) [WQD-175], the MIC in experiment [1] (setting [16]) worked out at 16 µg/mL; in experiment [1] (setting [17]), 16 µg/mL; in experiment [2] (setting [18]), 4 µg/mL; in experiment [2] (setting [19]), 4 µg/mL; in experiment [3], 4 µg/mL; in [4] (setting [19]), 8 µg/mL. Besides, the MIC stood at 8 µg/mL in experiment [5] (setting [20]), 8 µg/mL in experiment [6], 4 µg/mL in [7] (setting [21]) and 4 µg/mL in experiment [7] (setting [22]). The FIC was determined as 1 in experiment [2] (APH2″-AAC6′, ECG with WQD-175) and 1 in [7] (ECG with WQD-175). The MIC combine in experiment [2] (APH2″-AAC6′, ECG with WQD-175) was determined as 4 µg/mL; in experiment [7] (ECG with WQD-175) it was 4 µg/mL.
On to gentamicin [reference compound], for which the MIC alone in experiment [2] (APH2 (gentamicin resistant)) is > 512 µg/mL; in experiment [2] (APH2 (gentamicin resistant), listed as Gen), 512 µg/mL; in experiment [13] (W231 (gentamicin resistant)) it was 64 µg/mL; in experiment [14] (W233 (gentamicin resistant)) it was 512 µg/mL; in experiment [15] (W238 (gentamicin resistant)), 512 µg/mL. Besides, the FIC in experiment [2] (APH2, ECG+Kur+Gen) is listed as 0.0312; in experiment [13] (W231, ECG+Kur+Gen), 0.015; in experiment [14] (W233, ECG+Kur+Gen), 0.03; in [15] (W238, ECG+Kur+Gen), 0.03. Further, the MIC combine in experiment [2] (APH2, ECG+Kur+Gen) amounted to 16 µg/mL; in experiment [13] (W231, ECG+Kur+Gen), 1 µg/mL; in experiment [14] (W233, ECG+Kur+Gen), 16 µg/mL; in experiment [15] (W238, ECG+Kur+Gen), 16 µg/mL.
